Values quoted from earlier work as cited in patent US6573299B1, “Method and compositions for treatment of the aging eye” (Advanced Medical Instruments, priority 1999, dated 2003).

Assays:
[1] = tested on: tumor necrosis factor-alpha (TNF-alpha) and nitric oxide production
retinal ganglion cells = details: treated animals
[2] = long term high intake, greater than 1,000 mg/day
[3] = diet of 6 mg of lutein per day
[4] = not given; remark: listed apart in the source

**Q.** What does the source list for `Oc1ccc(C=Cc2cc(O)cc(O)c2)cc1` [Resveratrol, 3,5,4′-trihydroxystilbene]?
**A.** nitric oxide synthase inhibition (nitric oxide synthase): suppresses nitric oxide synthase; TNF-alpha and nitric oxide production [1]: inhibit tumor necrosis factor-alpha (TNF-alpha) and nitric oxide production

**Q.** For `N=C(N)NN` [aminoguanidine], which “loss of retinal ganglion cells” value (retinal ganglion cells) is on record?
**A.** Its value is “reduction in the loss of retinal ganglion cells”.

**Q.** For `O=C1O[C@H]([C@@H](O)CO)C(O)=C1O` [ascorbic acid], which risk of cataracts [2] is on record?
**A.** Its risk of cataracts is “substantially reduced risk of cataracts”.

**Q.** For `CCCCCCCCCCCCCCCC(=O)OC[C@H](O)[C@H]1OC(=O)C(O)=C1O` [ascorbyl palmitate], which “erythema from UV injured skin” value (5% lotion) is on record?
**A.** Its value is “effective in reducing erythema”.

**Q.** What about the “erythema after exposure to UVB” value (skin pretreated topically, lecithin gel base, compared to untreated skin) of the same compound?
**A.** Its value is “decreased erythema”.

**Q.** Which “lower prevalence of AMD” value [3] does the source give for `CC1=C[C@H](O)CC(C)(C)[C@H]1/C=C/C(C)=C/C=C/C(C)=C/C=C/C=C(C)/C=C/C=C(C)/C=C/C1=C(C)C[C@@H](O)CC1(C)C` [lutein] here?
**A.** Its value is 43%.

**Q.** Which results are given for Zinc?
**A.** loss of visual acuity in patients with AMD ([4]; clinical trial, high-dose zinc supplementation): reduction in the loss of visual acuity; AMD ([4]; study published in 1988): improved AMD; nitric oxide synthase inhibition (nitric oxide synthase): very potent inhibitor
